Data on 11 compounds can be found in patent publication US20260295053A1, “COMPOUNDS FOR DEGRADATION AND INHIBITION OF KRAS (G12D) PROTEIN” (Shenzhen Ionova Life Science Co., Ltd., priority 2023, published 2026).

One assay has as its system AsPC-1 cells. Description: AsPC-1 cell proliferation assay (CellTiter Glo). In kind it is cell-based. To be noted: Homo sapiens, ASPC1, 144 h, 6 days. An outline of the steps:
(§1)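 Read-outs were KRAS G12D immunofluorescence against β-actin after 24 h (DC50) and CellTiter Glo luminescence after 6 days (IC50). Compounds were titrated 1:3 from […] to 1.5 nM final on AsPC-1 cells at 37 °C, 5% CO2.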
(ATP-based viability assays read luminescence as a measure of living cells.)

A further assay addresses T1, KRAS (G12D) (Homo sapiens, UniProt P01116, G12D).
T1 construct: in-cell western with KRAS G12D antibody after 24 h
The assay can be described thus: KRAS (G12D) cellular degradation assay in AsPC-1 cells. To be noted: 24 hours, antibody fluorescence (Odyssey CLX), DC50 half-maximal degradation concentration. In kind it is cell-based. An outline of the steps: as §1

Each structure is given as a SMILES string.

T1 sequence (P01116 1-188 isoform P01116-2 G12D): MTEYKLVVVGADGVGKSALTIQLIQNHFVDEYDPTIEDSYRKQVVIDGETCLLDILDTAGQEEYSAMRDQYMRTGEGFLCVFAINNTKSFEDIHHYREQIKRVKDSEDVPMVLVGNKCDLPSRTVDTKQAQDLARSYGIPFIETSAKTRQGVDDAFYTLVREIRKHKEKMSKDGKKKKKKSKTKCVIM

For the compound `CCn1nccc1-c1ccc([C@@H](NC(=O)[C@@H]2C[C@@H](O)CN2C(=O)[C@H](C(C)C)n2cc(-c3ccc(COc4c(-c5c(C)c(F)cc6n[nH]cc56)c(C5CC5)cc5c(N6C[C@@H]7C[C@H]6CN7)nc(OC6CCOCC6)nc45)cc3)nn2)[C@H](C)O)c2c1CC2` [Example 84, (2S,4R)-1-((2S)-2-(4-(4-(((4-((1S,4S)-2,5-diazabicyclo[2.2.1]heptan-2-yl)-6-cyclopropyl-7-(6-fluoro-5-methyl-1H-indazol-4-yl)-2-((tetrahydro-2H-pyran-4-yl)oxy)quinazolin-8-yl)oxy)methyl)phenyl)-1H-1,2,3-triazol-1-yl)-3-methylbutanoyl)-N-((1R,2S)-1-(5-(1-ethyl-1H-pyrazol-5-yl)bicyclo[4.2.0]octa-1(6),2,4-trien-2-yl)-2-hydroxypropyl)-4-hydroxypyrrolidine-2-carboxamide], the IC50 (usually the concentration that inhibits the measured activity by half) with AsPC-1 cells was less than 10 nM. For the same compound, on KRAS (G12D), the half-maximal degradation concentration (DC50) (usually the concentration at which degradation of the target reaches its halfway point) was less than 10 nM.
Turning to `CCn1nccc1-c1ccc([C@@H](NC(=O)[C@@H]2C[C@@H](O)CN2C(=O)[C@H](C(C)C)n2cc(-c3ccc(COc4c(-c5c(C)c(F)cc6[nH]ncc56)c(C5CC5)cc5c(N6C[C@@H]7C[C@H]6CN7)nc(OC[C@H](C)OC)nc45)cc3)nn2)[C@H](C)O)c2c1CC2` [Example 85, (2S,4R)-1-((2S)-2-(4-(4-(((4-((1S,4S)-2,5-diazabicyclo[2.2.1]heptan-2-yl)-6-cyclopropyl-7-(6-fluoro-5-methyl-1H-indazol-4-yl)-2-((S)-2-methoxypropoxy)quinazolin-8-yl)oxy)methyl)phenyl)-1H-1,2,3-triazol-1-yl)-3-methylbutanoyl)-N-((1R,2S)-1-(5-(1-ethyl-1H-pyrazol-5-yl)bicyclo[4.2.0]octa-1(6),2,4-trien-2-yl)-2-hydroxypropyl)-4-hydroxypyrrolidine-2-carboxamide], in the assay with AsPC-1 cells, the IC50 is less than 10 nM. This compound returned a DC50 at KRAS (G12D) of less than 10 nM.
The compound `CCn1nccc1-c1ccc([C@H](CO)NC(=O)[C@@H]2C[C@@H](O)CN2C(=O)[C@H](C(C)C)n2cc(-c3ccc(COc4c(-c5c(C)c(F)cc6[nH]ncc56)c(C5CC5)cc5c(N6C[C@@H]7C[C@H]6CN7)nc(OC6CCC(OC)C6)nc45)cc3)nn2)cc1` (stereo partly drawn) [Example 86, (2S,4R)-1-((2S)-2-(4-(4-(((4-((1S,4S)-2,5-diazabicyclo[2.2.1]heptan-2-yl)-6-cyclopropyl-7-(6-fluoro-5-methyl-1H-indazol-4-yl)-2-((3-methoxycyclopentyl)oxy)quinazolin-8-yl)oxy)methyl)phenyl)-1H-1,2,3-triazol-1-yl)-3-methylbutanoyl)-N—((R)-1-(4-(1-ethyl-1H-pyrazol-5-yl)phenyl)-2-hydroxyethyl)-4-hydroxypyrrolidine-2-carboxamide] gave a 50% inhibitory concentration (IC50) with AsPC-1 cells of less than 10 nM. In addition, the DC50 at KRAS (G12D) was less than 10 nM.
`CCn1nccc1-c1ccc([C@@H](NC(=O)[C@@H]2C[C@@H](O)CN2C(=O)[C@H](C(C)C)n2cc(-c3ccc(COc4c(-c5c(C)c(F)cc6[nH]ncc56)c(C5CC5)cc5c(N6C[C@@H]7C[C@H]6CN7)nc(OC6CCC7(CC6)COC7)nc45)cc3)nn2)[C@H](C)O)cc1` [Example 87, (2S,4R)-1-((2S)-2-(4-(4-(((2-((2-oxaspiro[3.5]nonan-7-yl)oxy)-4-((1S,4S)-2,5-diazabicyclo[2.2.1]heptan-2-yl)-6-cyclopropyl-7-(6-fluoro-5-methyl-1H-indazol-4-yl)quinazolin-8-yl)oxy)methyl)phenyl)-1H-1,2,3-triazol-1-yl)-3-methylbutanoyl)-N-((1R,2S)-1-(4-(1-ethyl-1H-pyrazol-5-yl)phenyl)-2-hydroxypropyl)-4-hydroxypyrrolidine-2-carboxamide] had a half-inhibitory concentration (IC50) in the assay with AsPC-1 cells of less than 10 nM. The same compound showed a DC50 on KRAS (G12D) of less than 10 nM.
Compound `CCn1nccc1-c1ccc([C@@H](NC(=O)[C@@H]2C[C@@H](O)CN2C(=O)[C@H](C(C)C)n2cc(-c3ccc(COc4c(-c5c(C)c(F)cc6[nH]ncc56)c(C5CCC5)cc5c(N6C[C@@H]7C[C@H]6CN7)nc(OC[C@H](C)OC)nc45)cc3)nn2)[C@H](C)O)cc1` [Example 88, (2S,4R)-1-((2S)-2-(4-(4-(((4-((1S,4S)-2,5-diazabicyclo[2.2.1]heptan-2-yl)-6-cyclobutyl-7-(6-fluoro-5-methyl-1H-indazol-4-yl)-2-((S)-2-methoxypropoxy)quinazolin-8-yl)oxy)methyl)phenyl)-1H-1,2,3-triazol-1-yl)-3-methylbutanoyl)-N-((1R,2S)-1-(4-(1-ethyl-1H-pyrazol-5-yl)phenyl)-2-hydroxypropyl)-4-hydroxypyrrolidine-2-carboxamide] had an IC50 with AsPC-1 cells of less than 10 nM. Besides, the half-maximal degradation concentration (DC50) on KRAS (G12D) is less than 10 nM.
For `CCn1nccc1-c1ccc([C@@H](NC(=O)[C@@H]2C[C@@H](O)CN2C(=O)[C@H](C(C)C)n2cc(-c3ccc(COc4c(-c5c(C)c(F)c(F)c6[nH]ncc56)c(C5CC5)cc5c(N6C[C@@H]7C[C@H]6CN7)nc(OC[C@H](C)OC)nc45)cc3)nn2)[C@H](C)O)cc1` [Example 89, (2S,4R)-1-((2S)-2-(4-(4-(((4-((1S,4S)-2,5-diazabicyclo[2.2.1]heptan-2-yl)-6-cyclopropyl-7-(6,7-difluoro-5-methyl-1H-indazol-4-yl)-2-((S)-2-methoxypropoxy)quinazolin-8-yl)oxy)methyl)phenyl)-1H-1,2,3-triazol-1-yl)-3-methylbutanoyl)-N-((1R,2S)-1-(4-(1-ethyl-1H-pyrazol-5-yl)phenyl)-2-hydroxypropyl)-4-hydroxypyrrolidine-2-carboxamide], the half-maximal inhibitory concentration (IC50) with AsPC-1 cells was less than 10 nM. The DC50 on KRAS (G12D) was less than 10 nM.
The compound `CO[C@@H](C)COc1nc(N2C[C@@H]3C[C@H]2CN3)c2cc(C3CC3)c(-c3c(C)c(F)c(F)c4[nH]ncc34)c(OCc3ccc(-c4cn([C@H](C(=O)N5C[C@H](O)C[C@H]5C(=O)N[C@H](c5ccc(-c6scnc6C)cc5)[C@H](C)O)C(C)C)nn4)cc3)c2n1` [Example 90, (2S,4R)-1-((2S)-2-(4-(4-(((4-((1S,4S)-2,5-diazabicyclo[2.2.1]heptan-2-yl)-6-cyclopropyl-7-(6,7-difluoro-5-methyl-1H-indazol-4-yl)-2-((S)-2-methoxypropoxy)quinazolin-8-yl)oxy)methyl)phenyl)-1H-1,2,3-triazol-1-yl)-3-methylbutanoyl)-4-hydroxy-N-((1R,2S)-2-hydroxy-1-(4-(4-methylthiazol-5-yl)phenyl)propyl)pyrrolidine-2-carboxamide] came in with a half-inhibitory concentration (IC50) in the assay on AsPC-1 cells of less than 10 nM. Also, the DC50 on KRAS (G12D) was less than 10 nM.
For the compound `CO[C@@H](C)COc1nc(N2C[C@@H]3C[C@H]2CN3)c2cc(C3CC3)c(-c3c(C)c(F)cc4[nH]ncc34)c(OCc3ccc(-c4cn([C@H](C(=O)N5C[C@H](O)C[C@H]5C(=O)N[C@H](C#Cc5cccc6ncsc56)CO)C(C)C)nn4)cc3)c2n1` [Example 92, (2S,4R)-1-((2S)-2-(4-(4-(((4-((1S,4S)-2,5-diazabicyclo[2.2.1]heptan-2-yl)-6-cyclopropyl-7-(6-fluoro-5-methyl-1H-indazol-4-yl)-2-((S)-2-methoxypropoxy)quinazolin-8-yl)oxy)methyl)phenyl)-1H-1,2,3-triazol-1-yl)-3-methylbutanoyl)-N—((R)-4-(benzo[d]thiazol-7-yl)-1-hydroxybut-3-yn-2-yl)-4-hydroxypyrrolidine-2-carboxamide], in the assay on AsPC-1 cells, the IC50 was less than 10 nM. On KRAS (G12D), the DC50 is less than 10 nM.
With `Cc1ncsc1-c1ccc([C@H](CO)NC(=O)[C@@H]2C[C@@H](O)CN2C(=O)[C@H](C(C)C)n2cc(-c3ccc(COc4c(-c5c(C)c(F)cc6[nH]ncc56)c(C5CC5)cc5c(N6C[C@@H]7C[C@H]6CN7)nc(OC6CC7COCC7C6)nc45)cc3)nn2)cc1` (stereo partly drawn) [Example 93, (2S,4R)-1-((2S)-2-(4-(4-(((4-((1S,4S)-2,5-diazabicyclo[2.2.1]heptan-2-yl)-6-cyclopropyl-7-(6-fluoro-5-methyl-1H-indazol-4-yl)-2-((hexahydro-1H-cyclopenta[c]furan-5-yl)oxy)quinazolin-8-yl)oxy)methyl)phenyl)-1H-1,2,3-triazol-1-yl)-3-methylbutanoyl)-4-hydroxy-N—((R)-2-hydroxy-1-(4-(4-methylthiazol-5-yl)phenyl)ethyl)pyrrolidine-2-carboxamide], in the assay on AsPC-1 cells, the IC50 was less than 10 nM. The same compound yielded a DC50 on KRAS (G12D) of less than 10 nM.
In the assay on AsPC-1 cells, `Cc1ncsc1-c1ccc([C@H](CO)NC(=O)[C@@H]2C[C@@H](O)CN2C(=O)[C@H](C(C)C)n2cc(-c3ccc(COc4c(-c5c(C)c(F)cc6[nH]ncc56)c(C5CCC5)cc5c(N6C[C@@H]7C[C@H]6CN7)nc(OC6CCOCC6)nc45)cc3)nn2)cc1` [Example 94, (2S,4R)-1-((2S)-2-(4-(4-(((4-((1S,4S)-2,5-diazabicyclo[2.2.1]heptan-2-yl)-6-cyclobutyl-7-(6-fluoro-5-methyl-1H-indazol-4-yl)-2-((tetrahydro-2H-pyran-4-yl)oxy)quinazolin-8-yl)oxy)methyl)phenyl)-1H-1,2,3-triazol-1-yl)-3-methylbutanoyl)-4-hydroxy-N—((R)-2-hydroxy-1-(4-(4-methylthiazol-5-yl)phenyl)ethyl)pyrrolidine-2-carboxamide] gave an IC50 of less than 10 nM. The compound further had a DC50 at KRAS (G12D) of less than 10 nM.
For `CCn1nccc1-c1ccc([C@@H](NC(=O)[C@@H]2C[C@@H](O)CN2C(=O)[C@H](C(C)C)n2cc(-c3ccc(COc4c(-c5c(C)c(F)cc6[nH]ncc56)c(C5CC5)cc5c(N6C[C@@H]7C[C@H]6CN7)nc(OC[C@H](C)OC)nc45)cc3)nn2)[C@@H](O)C(C)C)cc1` [Example 95, (2S,4R)-1-((2S)-2-(4-(4-(((4-((1S,4S)-2,5-diazabicyclo[2.2.1]heptan-2-yl)-6-cyclopropyl-7-(6-fluoro-5-methyl-1H-indazol-4-yl)-2-((S)-2-methoxypropoxy)quinazolin-8-yl)oxy)methyl)phenyl)-1H-1,2,3-triazol-1-yl)-3-methylbutanoyl)-N-((1R,2S)-1-(4-(1-ethyl-1H-pyrazol-5-yl)phenyl)-2-hydroxy-3-methylbutyl)-4-hydroxypyrrolidine-2-carboxamide], the IC50 in the assay on AsPC-1 cells was less than 10 nM. Further, the DC50 on KRAS (G12D) is less than 10 nM.
